Laboratory results reported in US12239652B2, “Composition for preventing or treating muscular diseases, or for improving muscular functions, containing ganglioside” (INDUSTRY-ACADEMIC COOPERATION FOUNDATION, YONSEI UNIVERSITY, priority 2018, dated 2025).

Tests used:
p-mTOR = assay: Western blot of mRNA translation biomarkers in TNF-α-treated L6 myotubes: p-mTOR; assay type: cell-based; settings: 50 ng/mL TNF-α
Description: (§1) L6 myoblasts (ATCC) were seeded with DMEM (Hyclone) supplemented with 10% FBS (Hyclone) in a 6-well plate at a density of 1×10^5 cells/well, followed by culture. When the cultured cells reached a confluency of ˜80-85% per well, the media in the wells were replaced with DMEM (Hyclone) supplemented with 2% HS (Hyclone), followed by culture for additional 6 days to induce differentiation into myotubes. During culture for 6 days, the culture media were changed once every other day a total of 3 times. […] A group treated with 0.01% DMSO instead of the sample was used as a control. Cells were lysed with NP-40 buffer (ELPIS-Biotech, Daej eon, Korea) with a protease inhibitor cocktail (Sigma-Aldrich, St. Louis, MO, USA) and centrifuged at 13,000 rpm for 10 min. The cell lysate was obtained from the supernatant. The concentration of proteins in the supernatant was determined by the Bradford method (Bio-Rad Laboratories Inc.). Proteins at a certain concentration were heated for 5 min and separated by SDS-PAGE electrophoresis. The separated proteins were transferred to nitrocellulose membranes. Then, p-mTOR, mTOR, p-p70S6K, p70S6K, p-4EBP1, 4EBP1, and alpha-tubulin primary antibodies (Cell signaling technology, Beverly, MA, USA) were diluted at a ratio of 1:1000 with 2.5% bovine serum albumin (BSA; Bioworld, Dubin, OH, USA) and incubated with the proteins transferred to the nitrocellulose membranes at room temperature for 20 h. After incubation of the primary antibodies, the nitrocellulose membranes were washed 3 times with Tris-buffer saline Tween 20 (TBST) for 10 min. After washing, an anti-rabbit secondary antibody (Bethyl Laboratories, Inc., Montgomery, TA, USA) conjugated with horseradish peroxidase recognizing the primary antibodies was diluted 1:5000 with 2.5% BSA (Bioworld) and incubated with the nitrocellulose membranes at room temperature for 2 h. […]
(§2) Protein bands detected through antibody binding were developed using an ECL western blot detection reagent (Amersham, Tokyo, Japan) and visualized using a G;BOX EF imaging system (Syngene, Cambridge, UK). […]

mTOR = mTOR Sandwich ELISA in L6 myotubes (activity for myogenic induction); assay type: cell-based; settings: 12-h culture, *P<0.05
Description: The mTOR protein is known to induce the activation of proteins involved in muscle protein synthesis and an increase in muscle mass in the PI3K/Akt signaling pathway in muscle cells when phosphorylated and activated. Thus, the activity of mTOR was confirmed using an mTOR Sandwich ELISA kit (Cell Signaling Technology, Beverly, MA, USA) to determine the activity of ganglioside GM3 for myogenic induction.
L6 myoblasts (ATCC; Manassas, VA, USA) were seeded with Dulbecco's modified Eagle's media (DMEM; Hyclone) supplemented with 10% fetal bovine serum (FBS; Hyclone, Logan, UT, USA) in a 6-well plate at a density of 1×10^5 cells/well, followed by culture for 24 h. The media in the wells were replaced with DMEM (Hyclone) supplemented with 2% horse serum (HS; Hyclone), followed by culture for additional 6 days to differentiate the L6 cells into myotubes. Then, cells were treated with ganglioside GM3 (Cayman, Ann Arbor, MI, USA) at a concentration of 1 μM or 5 μM. After 12-h culture, cells were lysed by treatment with a cell lysis buffer. Proteins in the cell lysate were quantified by the Bradford method (Bio-Rad Laboratories Inc., Hercules, CA, USA) and the concentration of the cell lysate was then adjusted to 1 mg/mL. The cell lysate was plated in microwells bound with anti-mTOR antibody (50 μL/well) and cultured at 37° C. for 2 h. Cells were washed a total of 4 times with a washing buffer, treated with a detection antibody, and cultured at 37° C. for 1 h, rewashed a total of 4 times with a washing buffer, added with a horseradish peroxidase (HRP)-conjugated secondary antibody, and cultured at 37° C. for 30 min. Finally, after washing a total of 4 times with a washing buffer, TMB substrate was added to each well. After culture at 37° C. for 10 min, a stop solution was added to stop the TMB reaction. 2 min later, absorbance was measured at a wavelength of 450 nm to determine the level of mTOR in the myotubes treated with ganglioside GM3.
The procedure of Example 1 was repeated except that cells were treated with ganglioside GM1 (Cayman) at a concentration of 15 μM or 25 μM to examine the activity of the ganglioside for myogenic induction.
The procedure of Example 1 was repeated except that cells were treated with ganglioside GD1a (Cayman) at a concentration of 1 μM or 3 μM to examine the activity of the ganglioside for myogenic induction.
The procedure of Example 1 was repeated except that cells were treated with each of gangliosides GT1b and GQ1b (Cayman) at a concentration of 1 μM to examine the activity of the ganglioside for myogenic induction.

MuRF1 = assay: RT-PCR of muscle degrading protein mRNA in TNF-α-treated L6 myotubes: MuRF1; assay type: cell-based; settings: 50 ng/mL TNF-α
Description: (§3) L6 myoblasts (ATCC) were seeded with DMEM (Hyclone) supplemented with 10% FBS (Hyclone) in a 6-well plate at a density of 1×10^5 cells/well, followed by culture. When the cultured cells reached a confluency of ˜80-85% per well, the media in the wells were replaced with DMEM (Hyclone) supplemented with 2% HS (Hyclone), followed by culture for additional 6 days to induce differentiation into myotubes. During culture for 6 days, the culture media were changed once every other day a total of 3 times. The differentiation-induced cells were harvested and the cell media were replaced with DMEM supplemented with 50 ng/mL TNF-α (PeproTech) in which ganglioside GM3 (Cayman) was dissolved at a concentration of 1 μM or 5 μM. A group treated with 0.01% DMSO instead of the sample was used as a control. Total RNA was isolated from cells using TRIzol reagent (Takara, Kyoto, Japan). The isolated total RNA was quantified using NanoDrop 1000 (Thermo Fisher Scientific Inc., Waltham, MA, USA). 16 μL of the RNA was synthesized into cDNA using Reverse Transcriptase Premix (ELPIS-Biotech) and a PCR system (Gene Amp PCR System 2700; Applied Biosystems, Foster City, CA, USA) at 42° C. for 55 min and 70° C. for 15 min. 3 μL of the synthesized cDNA, the specific primers shown in Table 1 (Bioneer, Daej eon, Korea), and PCR premix (ELPIS-Biotech) were mixed and PCR was repeated 30 times at 95° C. for 30 sec, 60° C. for 1 min, and 72° C. for 1 min. After PCR amplification, cDNA was separated by electrophoresis on a 1.5% agarose gel and the cDNA bands were visualized using a G;BOX EF imaging system (Syngene).
(§4) The procedure of Example 8 was repeated except that cells were treated with ganglioside GM1 (Cayman) at a concentration of 15 μM or 25 μM to investigate the mRNA transcription and expression levels of atrogin-1 and MuRF1 as muscle degrading proteins.
(§5) The procedure of Example 8 was repeated except that cells were treated with ganglioside GD1a (Cayman) at a concentration of 1 μM or 3 μM to investigate the mRNA transcription and expression levels of atrogin-1 and MuRF1 as muscle protein degradation-related enzymes.
(§6) The procedure of Example 8 was repeated except that cells were treated with each of gangliosides GT1b and GQ1b (Cayman) at a concentration of 1 μM to investigate the mRNA transcription and expression levels of atrogin-1 and MuRF1 as muscle protein degradation-related enzymes.

Wistar rats = assay: Muscle mass (soleus weight) in TNF-α-induced muscular atrophy animal model; assay type: in vivo; settings: 50 mg/kg body weight once a day for 8 weeks; for Average soleus weight: right soleus, control 416.0 ± 19.57
Description: Wistar rats, aged five weeks, were acclimatized for one week and supplied with 100 ng/g of TNF-α for 2 weeks to induce muscular atrophy. The animals were randomly divided into a total of 5 groups, 8 animals per group, depending on their weight. Each of gangliosides GM3, GM1, GD1a, GT1b, and GQ1b (each 50 mg/kg body weight) as experimental groups was suspended in 0.25% carboxymethylcellulose. The suspension was administered at a given time once a day for 8 weeks. A group administered the same amounts of 0.25% carboxymethyl cellulose and TNF-α ingested by each experimental group was used as a control.
After administration of the sample for 8 weeks, the right soleus was dissected and its weight was measured with a microbalance (Mettler PE160, USA).

p-4EBP1 = assay: Western blot of mRNA translation biomarkers in TNF-α-treated L6 myotubes: p-4EBP1; assay type: cell-based; settings: 50 ng/mL TNF-α
Description: as §1, §2

p-p70S6K = assay: Western blot of mRNA translation biomarkers in TNF-α-treated L6 myotubes: p-p70S6K; assay type: cell-based; settings: 50 ng/mL TNF-α
Description: as §1, §2

atrogin-1 = assay: RT-PCR of muscle degrading protein mRNA in TNF-α-treated L6 myotubes: atrogin-1; assay type: cell-based; settings: 50 ng/mL TNF-α
Description: as §3, §4, §5, §6

| SMILES | expression level of phosphorylated p-mTOR in L6 muscle cells (p-mTOR; 1 μM or 3 μM) | activity of mTOR in L6 muscle cells (mTOR; 1 μM or 3 μM) | mRNA expression level of MuRF1 in L6 muscle cells (MuRF1; 1 μM or 3 μM) | increase of muscle (soleus) weight compared to the control group (Wistar rats) [%] | Average soleus weight (Wistar rats) [mg] | expression level of phosphorylated p-4EBP1 in L6 muscle cells (p-4EBP1; 1 μM or 3 μM) | expression level of phosphorylated p-P70S6K in L6 muscle cells (p-p70S6K; 1 μM or 3 μM) | mRNA expression level of atrogin-1 in L6 muscle cells (atrogin-1; 1 μM or 3 μM) | expression level of phosphorylated p-mTOR in L6 muscle cells (p-mTOR; 15 μM or 25 μM) | activity of mTOR in L6 muscle cells (mTOR; 15 μM or 25 μM) | mRNA expression level of MuRF1 in L6 muscle cells (MuRF1; 15 μM or 25 μM) | expression level of phosphorylated p-4EBP1 in L6 muscle cells (p-4EBP1; 15 μM or 25 μM) | expression level of phosphorylated p-P70S6K in L6 muscle cells (p-p70S6K; 15 μM or 25 μM) | mRNA expression level of atrogin-1 in L6 muscle cells (atrogin-1; 15 μM or 25 μM) | activity of mTOR in L6 muscle cells (mTOR; 1 μM) | mRNA expression level of MuRF1 in L6 muscle cells (MuRF1; 1 μM) | mRNA expression level of atrogin-1 in L6 muscle cells (atrogin-1; 1 μM) |
| --- | --- | --- | --- | --- | --- | --- | --- | --- | --- | --- | --- | --- | --- | --- | --- | --- | --- |
| CCCCCCCCCCCCC/C=C/[C@@H](O)[C@H](CO[C@@H]1OC(CO)[C@@H](O[C@@H]2OC(CO)[C@H](O[C@H]3OC(CO)[C@H](O)C(O[C@@H]4OC(CO)[C@H](O[C@]5(C(=O)O)CC(O)[C@@H](NC(C)=O)C([C@@H](O)[C@H](O)CO)O5)C(O)C4O)C3NC(C)=O)C(O[C@]3(C(=O)O)CC(O)[C@@H](NC(C)=O)C([C@@H](O)[C@H](O)CO)O3)C2O)C(O)C1O)NC(=O)CCCCCCCCCCCCCCCCC (some centres unmarked) [Ganglioside GD1a, ganglioside GD1a] | increased | significantly increased | reduced | 17.79 | 490.0 ± 22.8 | increased | increased | reduced | – | – | – | – | – | – | – | – | – |
| CCCCCCCCCCCCC/C=C/[C@@H](O)[C@H](CO[C@@H]1O[C@H](CO)[C@@H](O[C@@H]2O[C@H](CO)[C@H](O[C@@H]3O[C@H](CO)[C@H](O)[C@H](O[C@@H]4O[C@H](CO)[C@H](O)[C@H](O)[C@H]4O)[C@H]3NC(C)=O)[C@H](O[C@]3(C(=O)O)C[C@H](O)[C@@H](NC(C)=O)[C@H]([C@H](O)[C@H](O)CO)O3)[C@H]2O)[C@H](O)[C@H]1O)NC(=O)CCCCCCCCCCCCCCCCC [Ganglioside GM1, ganglioside GM1] | – | – | – | 22.11 | 508.0 ± 19.8 | – | – | – | increased | significantly increased | reduced | increased | increased | reduced | – | – | – |
| CCCCCCCCCCCCC/C=C/[C@@H](O)[C@H](CO[C@@H]1OC(CO)[C@@H](O[C@@H]2OC(CO)[C@H](O[C@H]3OC(CO)[C@H](O)C(OC4OC(CO)C(O)[C@H](O[C@]5(C(=O)O)CC(O)[C@@H](NC(C)=O)C([C@@H](O)[C@H](O)CO)O5)C4CO)C3NC(C)=O)C(O[C@]3(C(=O)O)CC(O)[C@@H](NC(C)=O)C([C@@H](O)[C@H](CO)O[C@]4(C(=O)O)CC(O)[C@@H](NC(C)=O)C([C@@H](O)[C@H](O)CO)O4)O3)C2O)C(O)C1O)NC(=O)CCCCCCCCCCCCCCCCC (some centres unmarked) [Ganglioside GT1b, ganglioside GT1b] | – | – | – | 14.42 | 476.0 ± 24.1 | – | – | – | – | – | – | – | – | – | significantly increased | reduced | reduced |
| CCCCCCCCCCCCC/C=C/[C@@H](O)[C@H](CO[C@@H]1OC(CO)[C@@H](O[C@@H]2OC(CO)[C@H](O[C@H]3OC(CO)[C@H](O)C(O[C@@H]4OC(CO)[C@@H](O)C(O[C@]5(C(=O)O)CC(O)[C@@H](NC(C)=O)C([C@@H](O)[C@H](CO)O[C@]6(C(=O)O)CC(O)[C@@H](NC(C)=O)C([C@@H](O)[C@H](O)CO)O6)O5)C4O)C3NC(C)=O)C(O[C@]3(C(=O)O)CC(O)[C@@H](NC(C)=O)C([C@@H](O)[C@H](CO)O[C@]4(C(=O)O)CC(O)[C@@H](NC(C)=O)C([C@@H](O)[C@H](O)CO)O4)O3)C2O)C(O)C1O)NC(=O)CCCCCCCCCCCCCCCCC (some centres unmarked) [Ganglioside GQ1b, ganglioside GQ1b] | – | – | – | 16.37 | 484.1 ± 25.4 | – | – | – | – | – | – | – | – | – | significantly increased | reduced | reduced |
